These results are taken from publication PMC4754833, “Rilpivirine analogs potently inhibit drug-resistant HIV-1 mutants” (Retrovirology, 2016).

Assay [1] concerns HIV-1 RT mutant K101P/V179I. Put plainly: single round infection assay, K101P/V179I. Type of assay: cell-based. The settings on record: for IC50: Human immunodeficiency virus 1; for fold-change of IC50 of the mutant relative to WT: K101P/V179I vs WT. As to the method: (§1) The human osteosarcoma cell line, HOS, was obtained from Dr. Richard Schwartz (Michigan State University, East Lansing, MI) and grown in Dulbecco’s modified Eagle’s medium (Invitrogen, Carlsbad, CA) supplemented with 5 % (v/v) fetal bovine serum, 5 % newborn calf serum, and penicillin (50 units/ml) plus streptomycin (50 µg/ml; Quality Biological, Gaithersburg, MD). Virion production and single-round infectivity assays were used to determine antiviral activity (IC50 values) of the compounds as previously described.
(§2) pNLNgoMIVR-ΔEnv.LUC has been described previously. The RT open reading frame was removed from pNLNgoMIVR-ΔEnv.LUC (digestion with SpeI and SalI) and inserted between the SpeI and SalI sites of pBluescript II KS+. Using that construct as the wild-type template, we prepared the following HIV-1 RT mutants using the QuikChange II XL (Stratagene, La Jolla, CA) site-directed mutagenesis protocol kit: L100I, K103N, Y181C, Y188L, H221Y, K103N/Y181C, G190A, G190S, M230L, P236L, L100I/K103N, K103N/P225H, V106A/G190A/F227L, V106A, L234I, V106A/F227L, V106A/L234I, V106A/F227L/L234I, E40K, D67E, K101E, V111A, E138K, M184I, M184V, K101E/M184I, K101E/M184V, E138K/M184I, E138K/M184V, K101P, Y181I, and K101P/V179I. The following sense oligonucleotides were used with matching cognate antisense oligonucleotides (not shown) (Integrated DNA Technologies, Coralville, IA) in the mutagenesis: L100I, 5′-[…]-3′; L100I 2-103, 5′-[…]-3′; K103N, 5′-[…]-3′; Y181C, 5′-[…]-3′; Y188L, 5′-[…]-3′; H221Y, 5′-[…]-3′; G190A, 5′-[…]-3′; G190S, 5′-[…]-3′; P225H, 5′-[…]-3′; F227, 5′-[…]-3′; M230L, 5′-[…]-3′; P236L, 5′-[…]-3′; V106A, 5′-[…]-3′; L234I, 5′-[…]-3′; E40K, 5′-[…]-3′; D67E, 5′-[…]-3′; K101E, 5′-[…]-3′; V111A, 5′-[…]-3′; E138K, 5′-[…]-3′; M184I, 5′-[…]-3′; M184V, 5′-[…]-3′; K101P, 5′-[…]-3′; Y181I, 5′-[…]-3′; K101P/V179I, 5′-[…]-3′. The double mutants K103N/Y181C, K103N/P225H, and L100I/K103N were made using the previously generated K103N mutant and the appropriate oligonucleotides to add the second mutation, Y181C, P225, and L100I respectively. The double mutants V106A/F227L and V106A/L234I were prepared using the previously generated V106A mutant and the appropriate oligonucleotides to add the second mutation, F227L and L234I, respectively. The double mutants K101E/M184I and K101E/M184V were constructed using the previously generated K101E mutant and the appropriate oligonucleotides to add the second mutation, M184I and M184V, respectively. The double mutants E138K/M184I and E138K/M184V were constructed using the previously generated E138K mutant and the appropriate oligonucleotides for the second mutation, M184I and M184V, respectively. The triple mutant V106A/F227L/L234I was made using the previously generated V106A/F227L double mutant and the appropriate oligonucleotides for the third mutation, L234I. The triple mutant V106A/G190A/F227L was constructed in a series of steps using the previously generated V106A mutant and the appropriate oligonucleotides for the second mutation, G190A, to generate the double mutant V106A/G190A, and then the triple mutant was made using double mutant V106A/G190A and oligonucleotides for the third mutation, F227L. The DNA sequence of each construct was verified by DNA sequence determination. The sequences encoding the mutant RTs were then subcloned into pNLNgoMIVR-ΔEnv.LUC (between the KpnI and SalI sites) to produce the mutant HIV-1 constructs. These DNA sequences were also checked independently by DNA sequence determination.
(§3) 10.1186/s12977-016-0244-2 The IC50 values (nM) of RPV and the RPV analogs were determined against the NNRTI resistant mutants were measured by using a single round infection assay, n = 4. The concentrations (nM) are measured by reductions in luciferase reporter activity followed by the standard deviations. […]

Assay [2] has as its system HIV-1 RT mutant H221Y. Further details: method as in PMID 23217210. The settings on record: previous study; cited from earlier work.
In assay [3] the test system is HIV-1 RT mutant E40K. Nature of the assay: single round infection assay, E40K. The class given is cell-based. The protocol: as §1, §2, §3
Assay [4] has as its system HIV-1 RT mutant G190S. Nature of the assay: single round infection assay, G190S. Type of assay: cell-based. The settings on record: Human immunodeficiency virus 1. The protocol:
as §1, §2, §3

Assay [5] has as its system HIV-1 RT mutant E138K/M184I. Nature of the assay: single round infection assay, E138K/M184I. The settings on record: for fold-change of IC50 of the mutant relative to WT: E138K/M184I vs WT; for IC50: ± SD, n=4. Type of assay: cell-based. As to the method: as §1, §2, §3
Assay [6] relates to HIV-1 RT mutant V106A/F227L/L234I. Put plainly: single round infection assay, V106A/F227L/L234I. Type of assay: cell-based. The settings on record: V106A/F227L/L234I vs WT. As to the method:
as §1, §2, §3

In assay [7] the test system is HIV-1 RT mutant K101E. Put plainly: single round infection assay, K101E. Type of assay: cell-based. The settings on record: for IC50: ± SD, n=4; for fold-change of IC50 of the mutant relative to WT: K101E vs WT. The protocol: as §1, §2, §3
The subject of assay [8] is WT HIV-1. Put plainly: single round infection luciferase assay, WT HIV-1. Type of assay: cell-based. The settings on record: Human immunodeficiency virus 1. As to the method:
as §1, §2, §3

The test system of assay [9] is HIV-1 RT mutant K103N. Further details: method as in PMID 23217210. The settings on record: previous study; cited from earlier work.
Assay [10] concerns HIV-1 RT mutant M230L. Put plainly: single round infection assay, M230L. Type of assay: cell-based. The settings on record: for fold-change of IC50 of the mutant relative to WT: M230L vs WT; for IC50: ± SD, n=4, limit of detection 100 nM. The protocol:
as §1, §2, §3

Assay [11] relates to WT HIV-1. The settings on record: previous study; cited from earlier work.
The test system of assay [12] is HIV-1 RT mutant K103N/P225H. Put plainly: single round infection assay, K103N/P225H. Type of assay: cell-based. The settings on record: for IC50: Human immunodeficiency virus 1; for fold-change of IC50 of the mutant relative to WT: K103N/P225H vs WT. As to the method:
as §1, §2, §3

The test system of assay [13] is HIV-1 RT mutant V106A. Put plainly: single round infection assay, V106A. Type of assay: cell-based. The protocol: as §1, §2, §3
The mark [14] stands for this setting: Human immunodeficiency virus 1, K101E.
Where [15] appears, read: Human immunodeficiency virus 1, E138K/M184I.
Setting [16] is: Human immunodeficiency virus 1, M230L.

Structures are written as SMILES. Like-named read-outs stand apart in the source and are kept apart here.

Usually IC50 stands for the concentration needed to halve the response being measured. Take `Cc1cc(/C=C/C#N)cc(C)c1Nc1nc(Nc2ccc(C#N)cc2)ncc1[N+](=O)[O-]` [compound 6]: the IC50 in assay [1] was 12.6 nM; in [2], below 7 nM; in [4], 0.2 ± 0.09 nM; in assay [7] (setting [14]), below 2.5 nM; in assay [7] (K101E) it was 2.6 ± 0.96 nM; in assay [8], 0.5 ± 0.17 nM. Further, the figures for the IC50 in assay [9], in [11] and in [12] were below 7 nM, below 7 nM and 0.8 ± 0.06 nM, respectively. Also, the “fold-change of IC50 of the mutant relative to WT” value is 25 in assay [1]; 2 in assay [3] (E40K vs WT); 2 in assay [5]; 2 in assay [6]; 5 in assay [7]; 6 in assay [10]. For the same molecule, in assay [12], the “fold-change of IC50 of the mutant relative to WT” value is listed as below 2.

For the molecule `Cc1cc(/C=C/C#N)cc(C)c1Nc1nc(Nc2ccc(C#N)cc2)ncc1N` [compound 7], the IC50 in assay [1] is 81.4 ± 8.1 nM; in [2] it was below 7 nM; in assay [4] it was 0.4 ± 0.07 nM; in assay [5] (E138K/M184I) it was 2.9 ± 0.6 nM; in [5] (setting [15]), below 2.5 nM; in assay [7] (setting [14]), below 2.5 nM. Also, the IC50 in [7] (K101E) is 2.3 ± 1.2 nM; in assay [8] it was 0.78 ± 0.2 nM; in assay [9] it was below 7 nM; in assay [10] (setting [16]), below 6.1 nM; in assay [10] (M230L), 4 ± 2 nM; in [11], below 7 nM. 1.1 ± 0.25 nM corresponded to half-maximal inhibition in [12] (IC50). The “fold-change of IC50 of the mutant relative to WT” value in assay [1] is reported as 104; in assay [5], 4; in assay [7], 3; in assay [10], 5; in assay [12], below 2.

With `Cc1cc(/C=C/C#N)cc(C)c1Nc1ncc([N+](=O)[O-])c(Nc2ccc(C#N)cc2)n1` [compound 8], the IC50 in assay [1] is 29.8 ± 5.4 nM; in [2] it was below 7 nM; in assay [4] it was 0.17 ± 0.02 nM; in [7] (setting [14]) it was 10.1 nM; in [8], 1.6 ± 0.2 nM; in assay [9], below 7 nM. Moreover, the half-inhibitory concentration (IC50) is 11.9 nM in assay [10] (setting [16]), below 7 nM in [11] and 1.2 ± 0.33 nM in [12]. In addition, the “fold-change of IC50 of the mutant relative to WT” value in assay [1] is recorded as 19; in assay [5], below 2; in [6] it was below 2; in assay [7], 6; in assay [10] it was 7.

As for `Cc1cc(/C=C/C#N)cc(C)c1Nc1nc(Nc2ccc(C#N)cc2)c2nc[nH]c2n1` [compound 13], the IC50 in assay [1] is above 100 nM; in assay [2], below 7 nM; in assay [4], 0.12 nM; in assay [8], 0.26 ± 0.04 nM; in assay [9], below 7 nM; in assay [11] it was below 7 nM. Moreover, in assay [12], the IC50 was 0.3 ± 0.09 nM. For the same molecule, the “fold-change of IC50 of the mutant relative to WT” value in assay [5] was 3; in assay [7], 4; in assay [10] it was 8; in assay [12], below 2.

With `Cc1cc(/C=C/C#N)cc(C)c1Nc1nc(Nc2ccc(C(F)(F)F)cc2)c2nc[nH]c2n1` [compound 15], the IC50 in assay [1] was above 100 nM; in assay [2], below 7 nM; in assay [4], 0.35 ± 0.05 nM; in assay [7] (setting [14]), below 6 nM; in assay [7] (K101E), 6.2 ± 1.2 nM; in assay [8], 1.7 ± 0.3 nM. Further, the IC50 in assay [9] is below 7 nM; in assay [10] (setting [16]) it was 16.8 nM; in assay [11], below 7 nM; in [12], 1.5 ± 0.31 nM. Further, the “fold-change of IC50 of the mutant relative to WT” value in assay [5] is reported as below 2; in assay [7], 4; in assay [13] (V106A vs WT), below 2; in assay [10], 10.

`Cc1cc(/C=C/C#N)cc(C)c1Nc1ncc2ncn(-c3ccc(C#N)cc3)c2n1` [compound 26]: the IC50 is above 100 nM in [1]; 4.2 ± 0.8 nM in [3] (Human immunodeficiency virus 1, E40K, ± SD, n=4); 2.1 nM in [4]; 24.5 ± 4.8 nM in [5] (setting [15]); 56.1 ± 4.1 nM in assay [7] (setting [14]); 7.7 nM in assay [8]. Also, the IC50 in assay [13] (Human immunodeficiency virus 1, V106A (selected by DOR), ± SD, n=4) is 4.9 ± 1.3 nM; in [10] (setting [16]), above 100 nM; in [12], 12.9 nM. In addition, the “fold-change of IC50 of the mutant relative to WT” value is given as 3 in [5], 5 in assay [6], 7 in [7] and below 2 in assay [12].

`Cc1cc(/C=C/C#N)cc(C)c1-n1cnc2cnc(Nc3ccc(C#N)cc3)nc21` [compound 27]: the IC50 in assay [1] was 16.6 nM; in [2], below 7 nM; in assay [4], 0.1 ± 0.01 nM; in assay [8] it was 0.58 ± 0.24 nM; in assay [9] it was below 7 nM; in assay [10] (setting [16]), below 6.1 nM. Also, the figures for the IC50 in assay [10] (M230L), in [11] and in [12] were 4.2 ± 0.5 nM, below 7 nM and 2.1 ± 0.93 nM, respectively. The “fold-change of IC50 of the mutant relative to WT” value in assay [1] is given as 29; in assay [5], below 2; in assay [6] it was below 2; in assay [7], 2; in [10] it was 7; in assay [12], 4.
